Test results: patent US20080213172A1, “RADIOIMAGING MOIETIES COUPLED TO PEPTIDEASE-BINDING MOIETIES FOR IMAGING TISSUES AND ORGANS THAT EXPRESS PEPTIDASES” (Molecular Insight Pharmaceuticals, Inc., priority 2006, published 2008)

Each compound was assayed against T1, purified rabbit lung ACE (Oryctolagus cuniculus, UniProt P12822) (assay: In vitro ACE activity colorimetric assay (Fujirebio ACE color kit)). Details: Re-complexes; purified rabbit lung ACE.
T1 construct: The rabbit lung ACE (Sigma A6778) was reconstituted to a concentration of 1 unit/3 ml water; purchased Sigma A6778; host or cells: rabbit lung tissue
T1 sequence (P12822 34-1310): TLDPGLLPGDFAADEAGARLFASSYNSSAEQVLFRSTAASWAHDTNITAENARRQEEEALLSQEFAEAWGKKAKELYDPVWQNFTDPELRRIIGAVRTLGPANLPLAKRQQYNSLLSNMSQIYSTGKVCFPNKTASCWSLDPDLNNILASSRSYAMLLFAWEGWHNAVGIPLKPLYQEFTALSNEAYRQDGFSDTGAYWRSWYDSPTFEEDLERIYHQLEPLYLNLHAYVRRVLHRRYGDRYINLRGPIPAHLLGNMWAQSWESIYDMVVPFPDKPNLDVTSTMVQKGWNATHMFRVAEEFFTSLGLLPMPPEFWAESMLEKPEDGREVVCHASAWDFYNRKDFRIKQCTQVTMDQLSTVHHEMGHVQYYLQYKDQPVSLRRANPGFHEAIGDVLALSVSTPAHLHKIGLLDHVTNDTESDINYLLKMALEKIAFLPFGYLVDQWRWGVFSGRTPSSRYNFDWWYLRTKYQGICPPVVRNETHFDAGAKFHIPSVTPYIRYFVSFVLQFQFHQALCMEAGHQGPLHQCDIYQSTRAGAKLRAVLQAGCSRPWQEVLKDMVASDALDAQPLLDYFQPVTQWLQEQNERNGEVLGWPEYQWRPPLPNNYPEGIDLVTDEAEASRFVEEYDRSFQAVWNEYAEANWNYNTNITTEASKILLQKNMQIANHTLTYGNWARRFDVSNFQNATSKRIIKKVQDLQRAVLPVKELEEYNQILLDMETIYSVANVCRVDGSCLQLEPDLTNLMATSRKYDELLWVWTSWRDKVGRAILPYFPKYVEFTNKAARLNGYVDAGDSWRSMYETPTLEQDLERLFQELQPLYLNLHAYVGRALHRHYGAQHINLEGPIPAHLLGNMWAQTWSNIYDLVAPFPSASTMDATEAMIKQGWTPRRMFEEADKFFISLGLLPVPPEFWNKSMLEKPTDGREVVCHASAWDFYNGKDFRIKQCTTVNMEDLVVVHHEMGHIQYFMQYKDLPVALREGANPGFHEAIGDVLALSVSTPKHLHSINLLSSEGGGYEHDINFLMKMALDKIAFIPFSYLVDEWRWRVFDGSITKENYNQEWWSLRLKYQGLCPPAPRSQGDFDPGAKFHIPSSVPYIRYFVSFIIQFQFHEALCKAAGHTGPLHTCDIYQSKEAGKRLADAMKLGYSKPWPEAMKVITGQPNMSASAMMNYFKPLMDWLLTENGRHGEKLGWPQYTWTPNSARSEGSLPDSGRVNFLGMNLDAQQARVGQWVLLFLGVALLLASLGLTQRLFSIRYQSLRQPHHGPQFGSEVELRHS
Format: biochemical
Procedure: ACE inhibition was evaluated in vitro against rabbit lung ACE using a colorimetric assay.
A range of concentrations of each compound was examined for the ability to inhibit ACE cleavage of p-hydroxybenzoyl-glycine L-histidyl-L-leucine using a commercially available in vitro biochemical assay according to manufacturer's specifications (Fujirebio). The source of ACE enzyme chosen for the analysis was purified rabbit lung ACE (Sigrna) at 3.3 mU/sample. Lisinopril was included in each experiment as a positive control.
Angiotensin converting enzyme (ACE) activity was determined using the ACE color kit (Fujirebio) according to the manufacturers instructions. ACE acts upon p-hydroxybenzoyl-glycyl-L-histidyl-L-leucine to produce p-hydroxybenzoyl-glycine, which is converted to p-hydroxybenzoic acid by hippuricase. Quinoneimine dye is produced by oxidation and condensation of the p-hydroxybenzoic acid and 4-aminoantipyrine using sodium metaperiodate. The concentration of quinoneimine dye is quantitatively measured at its absorbance maximum of 505 nm. This assay was designed to compare the tissue and plasma specificity of rhenium-labeled ACE inhibitors in an ACE colorimetric assay.
Preparation of reagents: The ACE color kit was purchased from Fujirebio and the assay was conducted according to the manufacturer's instructions: reconstitute substrate with 5.6 ml of buffer solution, reconstitute blank with 5.6 ml of buffer solution for blank, reconstitute developer with 15.5 ml of stopper solution. The rabbit lung ACE (Sigma A6778) was reconstituted to a concentration of 1 unit/3 ml water.
Substrate or blank solution (125 μL) was then added and incubated at 37° C. for 20 min. The developer solution was added and incubated 37° C. for 3 min. The activity of the test compounds was determined by measuring the absorbance at 505 nm on a spectrophotometer. The optimal amount of serum ACE (25 μL) and tissue ACE (3.3 mUnits) was used to determine the specificity of the rhenium-labled ACE inhibitors. Test compounds, including lisinopril and captopril, were prepared (50 μM stock) and serially diluted 10-fold for final concentrations ranging from 1 μM to 0.1 nM (10 μL/assay tube). The assay was conducted as described above.
In vitro ACE activity assay. The ability of test compounds to inhibit ACE activity was determined using the ACEcolor kit from Fujirebio, Inc. according to the manufacturer's instructions. Purified rabbit lung ACE. (3.3 mUnits, Sigrna Chemicals) was incubated for 20 min with the test compound at concentrations of 1 μM to 0.1 nM in a solution of substrate at 37° C. Developer solution was added and the samples were incubated for an additional 5 minutes at 37° C. before reading at 505 nm in a spectrophotometer.

Compound	IC50
NCCCC[C@H](N[C@@H](CCc1ccccc1)C(=O)O)C(=O)N1CCC[C@H]1C(=O)O [Lisinopril, reference compound]	4 nM

Same assay, conditions: free D(Cx)L ligands; rabbit lung ACE 3.3 mU/sample

Compound	IC50
O=C(CCCN(Cc1ccccn1)Cc1ccccn1)NCCCCC(NC(CCc1ccccc1)C(=O)O)C(=O)N1CCCC1C(=O)O (stereo not drawn) [D(C4)L]	83.3 nM
O=C(CCCCN(Cc1ccccn1)Cc1ccccn1)NCCCCC(NC(CCc1ccccc1)C(=O)O)C(=O)N1CCCC1C(=O)O (stereo not drawn) [D(C5)L]	42.8 nM
O=C(CCCCCN(Cc1ccccn1)Cc1ccccn1)NCCCCC(NC(CCc1ccccc1)C(=O)O)C(=O)N1CCCC1C(=O)O (stereo not drawn) [D(C6)L]	42.5 nM
O=C(CCCCCCCN(Cc1ccccn1)Cc1ccccn1)NCCCCC(NC(CCc1ccccc1)C(=O)O)C(=O)N1CCCC1C(=O)O (stereo not drawn) [D(C8)L]	19.5 nM
NCCCC[C@H](N[C@@H](CCc1ccccc1)C(=O)O)C(=O)N1CCC[C@H]1C(=O)O [Lisinopril, reference compound]	2.5 nM
